# Source: US20050272688A1, “Combined treatment with gemcitabine and an epidermal growth factor receptor kinase inhibitor” (priority 2004, published 2005)
# “And” between values parts separate entries of the source, which are not always exact repeats. Equal values may be shown once. Read-outs that look alike come from different tables or passages of the source.
# Experiments:
# [1] = test system: A549 NSCLC xenograft; format: in vivo
# Description: Mice were implanted with A549 NSCLC cells. […] Tumor size was measured 3 times per week. Values are means, n=10.
# (§1) H460a cells (provided by Dr Jack Roth, Md., Anderson) were grown in Dulbecco's Modified Eagle Media (DMEM) supplemented with 10% Foetal Bovine Serum (FBS). A549 cells (American Type Culture Collection [Manassas, Va.] were grown in Roswell Park Memorial Institute medium (RPMI) 1640+10% FBS. The cell concentrations for implant were 1×10^7 cells/0.2 mL for H460a and 7.5×10^6 cells/0.2 mL for A549.
# (§2) Cells were suspended in phosphate-buffered saline, and implanted subcutaneously in the right flank of each mouse. Once palpable tumours were established, animals were randomised so that all groups had similar starting mean tumour volumes of 100-150 mm^3. Tumour measurements and mouse weights were taken three times per week. Animals were individually monitored throughout the experiment.
# (§3) All groups were treated daily for 3 weeks.
# (§4) Gemcitabine was given intraperitoneally (i.p.) using a 3 mL syringe and 26-gauge needle. All groups were treated every 3 days for 3 weeks (a total of six injections).
# (§5) Weight loss was calculated as percent change in mean group body weight, using the formula: ((W−W0)/W0)×100 • where ‘W’ represents mean body weight of the treated group at a particular day, and ‘W0’ represents mean body weight of the same group at start of treatment. Maximum weight loss was also calculated using the above formula, giving the maximum percentage of body weight lost at any time in the entire experiment for a particular group. Treatment efficacy was assessed by tumor growth inhibition. Tumour volumes of treated groups were given as percentages of tumor volumes of the control groups (% T/C), using the formula: 100×((T−T0)/(C−C0)) • where ‘T’ represents mean tumor volume of a treated group on a specific day during the experiment, ‘T0’ represented mean tumor volume of the same group on the first day of treatment, C represents mean tumor volume of a control group on a particular day of the experiment, and C0 represents mean tumor volume of the same group on the first day of treatment.
# (§6) Tumor growth inhibition was calculated using the formula: [127] 100% T/C
# (§7) Tumor volume (mm^3) was calculated using the ellipsoid formula: (D×(d^2))/2 • where ‘D’ represents the large diameter of the tumor, and ‘d’ represents the small diameter. In some cases, tumor regression and/or percentage change in tumor volume was calculated using the formula: ((T−T0)/T0)×100 • where ‘T’ represents mean tumor volume of the treated group at a particular day, and ‘T0’ represents mean tumor volume of the same treated group at the start of treatment.
# [2] = Chronic-dose plasma and tumor concentrations of erlotinib in tumor-bearing mice; format: in vivo, nu/nu athymic mice; details: for concentration at 1 h / concentration at 6 h: nu/nu athymic, mouse; for concentration at 1 h: 1 hour post dose; for concentration at 6 h: 6 hours post dose
# Description: On day 28 post tumor implant, blood (from the retro-orbital sinus) and tumor samples were collected at 1 and 6 hours post dosing. […] Values are means±SD, n=3.
# (§8) For single-dose pharmacokinetics (PK), blood samples from three mice per time point were collected by cardiac puncture at 5, 15, 30, 60 minutes and 2, 4, 8, 16, 24 hours post-dose. For chronically treated animals, blood samples from two or three mice per time point were collected via the retro-orbital sinus at 1 and 6 hours. Collection tubes contained ethylene diamine tetra-acetic acid (EDTA) as anticoagulant. Samples were stored at −70° C. […] PK parameters were estimated by non-compartmental analysis of the composite data, using the PK evaluation programme WinNonlin PRO® version 3.1 (Pharsight Inc).
# [3] = in vivo; details: for MTD at 14 days: female, mouse, in vivo
# Description: FIG. 6: Maximum tolerated dose assessment in non-tumour bearing athymic nude mice treated for 14 days (n=5).
# Female, athymic, nu/nu-nuBR nude mice (Charles River Labs, Wilmington, USA) of around 10-12 weeks and weighing 23-25 g were used. The health of the mice was assessed daily by observation and analysis of blood samples taken from sentinel animals on the shared shelf racks. All animals were allowed to acclimatise and recover from shipping-related stress for 1 week.
# [4] = test system: NSCLC xenograft tumor; test: Immunohistochemistry of xenograft tumors (Ki-67, TUNEL apoptosis, CD31 microvascular density); format: in vivo, athymic nude mice
# Description: Sections for immunohistochemistry were cut at 5μ.
# To block non-specific tissue-binding sites, sections were blocked by 10% normal serum from the species in which the secondary antibody was raised. Sections were incubated for 20 minutes at room temperature in serum prepared in Ultra-V (Lab Vision).
# [5] = test system: H460a NSCLC xenograft; test: Tumor growth inhibition in H460a NSCLC xenograft model; format: in vivo, athymic nude mice
# Description: (§9) Mice were implanted with H460a NSCLC cells. […] Tumor size was measured 3 times per week. Values are means, n=10.
# as §9, §1, §2, §3, §4, §5, §6, §7
# [6] = Necropsy, haematology, clinical chemistry and histology of treated mice; format: in vivo, athymic nude mice
# Description: At necropsy, skin samples were fixed in 10% buffered formalin, embedded in paraffin, sectioned at 5 μand stained with haematoxylin and eosin.
# Five mice per treatment from all remaining groups were given a full necropsy at the end of the study. Whole blood was also collected from these mice for haematology and clinical chemistry.
# [7] = Single-dose pharmacokinetics of erlotinib in non-tumor bearing mice; format: in vivo, female nu/nu athymic mice
# Description: as §8
# The doses refer to the hydrochloride salt with an active drug (free base) content of 91.5%. […] Three animals per time point were evaluated for PK data (FIG. 4).
# [8] = test system: NSCLC; details: single agent, stage 1V patients; cited from earlier work
# [9] = plasma, oral 6.3-150.0 mg/kg daily, highest value, read-out: Plasma concentration
# [10] = H460a tumor, oral 150 mg/kg, read-out: Mean tumor concentration
smiles,measurement,setting,value
"C#Cc1cccc(Nc2ncnc3cc(OCCOC)c(OCCOC)cc23)c1 [erlotinib, [6,7-bis(2-methoxyethoxy)-4-quinazolin-4-yl]-(3-ethynylphenyl) amine]",Tumor growth inhibition,"[1]; erlotinib 25 mg/kg alone, day 47",48%
same,Extent of partial regression,[1]; erlotinib 100 mg/kg alone,16% and 7%
same,Number of partial regressions,[1]; erlotinib 100 mg/kg alone,two
same,Tumor growth inhibition,"[1]; erlotinib 100 mg/kg alone, day 47 post tumor implantation (treatment day 19)",87%
same,Dose proportionality of exposure,"[2]; ascending oral doses 6.3-150.0 mg/kg, tumor-bearing mice",more than dose-proportional
same,concentration at 1 h,[2]; [9],≤ 16700 ng/mL
same,concentration at 6 h,[2]; [9],≤ 8870 ng/mL
same,concentration at 1 h,[2]; [10],4800 ng/g
same,concentration at 6 h,[2]; [10],3090 ng/g
same,Tolerability,"[3]; 150 mg/kg for 3 weeks, previous efficacy studies (unpublished)",well tolerated
same,Toxicity outcome,[3]; 200 mg/kg group,marked weight loss
same,Toxicity outcome,[3]; 400 mg/kg group,One mouse in the 400 mg/kg group died
same,MTD at 14 days,"[3]; oral daily, 14 days",100 mg/kg
same,Ki-67 proliferative index,"[4]; erlotinib 100 mg/kg, both NSCLC xenograft tumor models",mild decrease
same,"Angiogenesis as microvascular density (MVD), CD31 staining",[4]; erlotinib monotherapy,no clear effect
same,Frequency of apoptosis in tumor cells,"[4]; erlotinib monotherapy, treated xenografts",no significant difference
same,Tumor growth inhibition,"[5]; dose response study, 6.25 mg/kg oral daily, day 28",28%
same,Tumor growth inhibition,"[5]; dose response study, 12.5 mg/kg oral daily, day 28",36%
same,Tumor growth inhibition,"[5]; dose response study, 25 mg/kg oral daily, day 28",46%
same,Tumor growth inhibition,"[5]; dose response study, 100 mg/kg oral daily, day 28 post tumor implantation",61%
same,Tumor regressions,"[5]; dose response study, all dose groups",no partial or complete regressions
same,Skin lesion histology,[6]; erlotinib 100 mg/kg/day for 21 days,"diffuse, mild to moderate epidermal acanthosis, epidermal hyperkeratosis, focal escharosis, and infiltration of mostly acute inflammatory cells in the dermis"
same,Changes in haematology or clinical chemistry parameters,[6]; erlotinib monotherapy,no changes
same,Treatment-related macroscopic changes in the skin,[6]; erlotinib monotherapy,substantial reddening and crusting of the skin of the muzzle
same,Dose proportionality of exposure (AUC),[7]; 20 vs 100 mg/kg single dose,dose-proportional
same,MRT,"[7]; female, nu/nu athymic, mouse, plasma, po, single 20 and 100 mg/kg by gavage, read-out: Average mean residence time",~7 h
same,half-life,"[7]; female, nu/nu athymic, mouse, plasma, po, single 20 and 100 mg/kg by gavage, read-out: Mean apparent terminal half-life (converted)",~4 h
same,AUC(0-t),"[7]; female, nu/nu athymic, mouse, po, single 20 mg/kg by gavage, plasma",33.5 µg·h/mL
same,AUC(0-t),"[7]; female, nu/nu athymic, mouse, po, single 100 mg/kg by gavage, plasma",~196 µg·h/mL
same,Mean maximum plasma concentration,[7]; single 20 mg/kg by gavage,"~9,100 ng/mL"
same,Mean maximum plasma concentration,[7]; single 100 mg/kg by gavage,"approximately 24,000 ng/mL"
same,Time of maximum plasma concentration,[7]; single 20 and 100 mg/kg by gavage,0.5-1.0 hours post dose
CC(=O)O[C@H]1C(=O)[C@@]2(C)[C@H]([C@H](OC(=O)c3ccccc3)[C@]3(O)C[C@H](OC(=O)[C@H](O)[C@@H](NC(=O)c4ccccc4)c4ccccc4)C(C)=C1C3(C)C)[C@]1(OC(C)=O)CO[C@@H]1C[C@@H]2O [paclitaxel],Response rate,[8],21% to 24%
Nc1ccn([C@@H]2O[C@H](CO)[C@@H](O)C2(F)F)c(=O)n1 [gemcitabine],Tumor growth inhibition,"[1]; gemcitabine 30 mg/kg alone, day 47",42%
same,Extent of partial regression,[1]; gemcitabine 120 mg/kg alone,5%
same,Number of partial regressions,[1]; gemcitabine 120 mg/kg alone,one
same,Tumor growth inhibition,"[1]; gemcitabine 120 mg/kg alone, day 47",75%
same,MTD at 14 days,[3]; every 3 days,120 mg/kg
same,Tumor growth inhibition,"[5]; combination study, gemcitabine 30 mg/kg i.p. every 3 days alone",64%
same,Tumor growth inhibition,"[5]; combination study, gemcitabine 120 mg/kg i.p. every 3 days alone",93%
